“And” between values parts separate entries of the source, which are not always exact repeats. Equal entries are not always repeated.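 Test compounds were applied to cells in 96-well plates for 48 hours at 5 doses. Here, GI50 denotes the concentration required for 50% inhibition of growth. TGI denotes the concentration required for complete inhibition of growth.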
Experiments:
Assay in all cases: inhibition of tumour cell growth, NCI panel, 48 h
[1] = tested on: BT-549 breast
[2] = tested on: RXF 393 renal
[3] = tested on: LOX IMVI melanoma
[4] = tested on: COLO 205 colon
[5] = tested on: ACHN renal
[6] = tested on: HT29 colon
[7] = tested on: NCI-H522 lung
[8] = tested on: MOLT-4 leukemia
[9] = tested on: HOP-92 NSCLC
[10] = tested on: CCRF-CEM leukemia

Structure (SMILES) | GI50 [1] | TGI [1] | GI50 [2] | TGI [2] | GI50 [3] | TGI [3] | GI50 [4] | TGI [4] | GI50 [5] | TGI [5] | GI50 [6] | TGI [6] | GI50 [7] | TGI [7] | GI50 [8] | TGI [8] | GI50 [9] | TGI [9] | GI50 [10] | TGI [10]
Cc1nn(-c2ccccc2)c(C)c1/C=N/N1CCN(Cc2ccccc2)CC1 | 48.2 µM | > 100 µM | > 100 µM | > 100 µM | 44 µM | > 100 µM | 41 µM | > 100 µM | 52.4 µM | > 100 µM | 43 µM | > 100 µM | 78.5 µM | > 100 µM | 26.8 µM | 55.2 µM | – | – | – | –
Cc1cccc2c1NC(=O)C2(c1ccc(O)cc1)c1ccc(O)cc1 | < 0.01 µM | – | < 0.0181 µM | 0.709 µM | 6.76 µM | 25.6 µM | 0.0135 µM | 11.1 µM | 12.4 µM | > 100 µM | 15.7 µM | 46.5 µM | 12.6 µM | 33.4 µM | 11.8 µM | 75 µM | 1.42 µM | 27.6 µM | 22.3 µM | > 100 µM
COC(=O)c1cc(NC(=O)CN(CCN(CC(=O)O)CC(=O)Nc2ccc(O)c(C(=O)OC)c2)CC(=O)O)ccc1O | 52.1 µM | > 100 µM | > 100 µM | > 100 µM | 38.5 µM | > 100 µM | 72 µM | > 100 µM | 36.7 µM | > 100 µM | > 100 µM | > 100 µM | 46.4 µM | > 100 µM | 28.5 µM | > 100 µM | > 100 µM | > 100 µM | 30.9 µM | > 100 µM
Cc1csc(-c2ccc3c(c2)COC3(CCCN(C)C)c2ccc(F)cc2)c1 (stereo not given) | 1.6 µM | 3.2 µM | 1.63 µM | 3.04 µM | 1.77 µM | 3.24 µM | 2.59 µM | 5.64 µM | 1.74 µM | 3.14 µM | – | – | 2.06 µM | 4.31 µM | 2.55 µM | 6.69 µM | 1.6 µM | 3.17 µM | 2.21 µM | 5.35 µM
O=C1C(Cl)=C(Nc2cccc(O)c2)C(=O)N1c1ccc(Cl)cc1Cl | 13.9 µM | 54.6 µM | 17 µM | 67.3 µM | 19.3 µM | 48.3 µM | 28.2 µM | > 100 µM | 30.6 µM | > 100 µM | 35.1 µM | > 100 µM | 13.8 µM | 32.9 µM | 7.32 µM | 33.1 µM | – | – | 17.5 µM | 46.9 µM
COc1cccc2cc(-c3nc(C4CCC(C(=O)O)CC4)n4ncnc(N)c34)[nH]c12 (stereo not given) | 0.0939 µM and 0.168 µM | 1.06 µM and 1.49 µM | 0.186 µM and 0.299 µM | 0.954 µM and 3.27 µM | 0.368 µM and 0.825 µM | 4.85 µM and > 10 µM | 1.07 µM and 0.542 µM | 13.5 µM and > 8.26 µM | 0.42 µM and 1.03 µM | 15.5 µM and > 10 µM | 1.2 µM and 2.52 µM | 79.9 µM and > 10 µM | 0.0712 µM and 0.209 µM | 1.92 µM and > 8.47 µM | 0.4 µM and 0.767 µM | > 40.8 µM | 0.0158 µM and 0.0327 µM | 0.0988 µM and 0.358 µM | 0.247 µM and 0.816 µM | 16.2 µM and > 10 µM
CN1CCN(CCCN2c3ccccc3Sc3ccc(C(F)(F)F)cc32)CC1 | 3.71 µM | 14.5 µM and 29.3 µM and 28.1 µM | 1.78 µM and 10 µM and 4.08 µM | 4.62 µM and 23.1 µM and 15.5 µM | 1.59 µM | 3.28 µM and 8.79 µM and 11.2 µM | 1.64 µM and 1.8 µM and 3.87 µM | 3.15 µM and 3.65 µM and 9.3 µM | 2.1 µM | 4.67 µM and 23.3 µM and 24.7 µM | 1.53 µM | 3.06 µM and 7.61 µM and 5.88 µM | 1.87 µM and 4.05 µM and 13 µM | 3.5 µM and 17.8 µM and 26.1 µM | 2.35 µM | 4.92 µM and 10.8 µM and 20.6 µM | 1.07 µM and 2.26 µM and 7.54 µM | 4.35 µM and 10.4 µM and 20.5 µM | 2.35 µM and 2.17 µM and 8.25 µM | 6 µM and 6.52 µM and 26.5 µM
Nc1ncnc2c1c(C(=O)NO)cn2C1OC(CO)C(O)C1O (stereo not given) | 0.426 µM | 19.2 µM | 0.331 µM | – | 0.262 µM | 1.77 µM | 0.279 µM | 1.55 µM | 0.203 µM | 1.15 µM | 0.39 µM | > 100 µM | 0.435 µM | 4.62 µM | 0.306 µM | 1.66 µM | 0.205 µM | 1.25 µM | 0.235 µM | > 100 µM
CCCN(CCC)c1ccc(/C=N/NC(=O)c2cccnc2)cc1 | 30.7 µM | > 100 µM | 19.2 µM | 42.1 µM | 17.3 µM | 58.5 µM | 31.5 µM | > 100 µM | 39.5 µM | > 100 µM | 11 µM | 32 µM | 16.6 µM | 46.8 µM | 31 µM | > 100 µM | 20.3 µM | 64.8 µM | 37.1 µM | > 100 µM
C(=C\c1nc2ccccc2s1)/c1ccc(N2CCOCC2)s1 | 34.6 µM | > 100 µM | 31.3 µM | > 100 µM | 38.4 µM | > 100 µM | > 100 µM | > 100 µM | 33.4 µM | > 100 µM | 20.8 µM | > 100 µM | 49.2 µM | > 100 µM | > 100 µM | > 100 µM | 35.7 µM | 95.3 µM | 55.7 µM | > 100 µM
CC(=O)Nc1ccc(S(=O)(=O)c2ccc(NC(C)=O)cc2)cc1 | > 100 µM | > 100 µM | > 100 µM | > 100 µM | > 100 µM | > 100 µM | > 100 µM | > 100 µM | > 100 µM | > 100 µM | > 100 µM | > 100 µM | > 100 µM | > 100 µM | > 100 µM | > 100 µM | > 100 µM | > 100 µM | > 100 µM | > 100 µM
CS(=O)(=O)N(CC(=O)O)Cc1ccccc1 | – | > 100 µM | – | > 100 µM | – | > 100 µM | – | > 100 µM | – | > 100 µM | – | > 100 µM | – | > 100 µM | – | > 100 µM | – | > 100 µM | – | > 100 µM
O=c1cc(-c2ccccc2)nc2cc(-c3ccco3)[nH]n12 | 14.8 µM | > 100 µM | 18.9 µM | > 100 µM | 15.2 µM | > 100 µM | 6.65 µM | 44 µM | 22.6 µM | > 100 µM | 4.22 µM | > 100 µM | 6.77 µM | 40.7 µM | 10.7 µM | > 100 µM | 10.5 µM | 93.3 µM | 16.3 µM | > 100 µM

From PubChem BioAssay (NCI)
